The target of assay [1] is T1, IGF-1R (Homo sapiens, UniProt P08069).
T1 construct: expressed in transfected cells
Kind of assay: Example B-1: IGF-1R Assay (PC3 cells stimulated with IGF1, AlphaLISA on cell lysates). Format: cell-based. Conditions: compound two hours, IGF1 200 ng/mL for 30 min, read-out: IC50, Biological Activity against IGF-1R (Table B1). In short, it runs like this: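 PC3 cells serum-starved 2 h, treated 2 h with 3-fold serially diluted compound, then stimulated 30 min with IGF1 (200 ng/mL final). Lysates analysed by AlphaLISA; % inhibition calculated relative to vehicle and EC80 controls, IC50 derived.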
On the technique in general: Bead proximity is the source of the signal in Alpha formats.

Assay [2] has as its target T1, IGF-1R. Put plainly: Example B-2: IGF-1R Assay (PathHunter cell lines, EC80 agonist challenge, chemiluminescent detection). Format: cell-based. Conditions: PathHunter cells, compound 60 minutes at 37° C., EC80 agonist 3 hours; read-out: IC50, Biological Activity against IGF-1R (Table B2). In a few lines: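 PathHunter cells were pre-incubated with compound for 60 min at 37° C (1% vehicle), then challenged with EC80 agonist for 3 h at room temperature. Chemiluminescent detection after 1 h gave % inhibition relative to EC80 and vehicle controls, from which IC50 was derived.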

The text below walks through data of US20250145585A1, “HETEROCYCLIC INHIBITORS OF IGF-1R FOR TREATMENT OF DISEASE” (HORIZON THERAPEUTICS IRELAND DAC, priority 2023, published 2025).

The term IC50 denotes the concentration at which inhibition is half-maximal.

Molecules are shown by their SMILES.

T1 sequence (P08069 31-1367): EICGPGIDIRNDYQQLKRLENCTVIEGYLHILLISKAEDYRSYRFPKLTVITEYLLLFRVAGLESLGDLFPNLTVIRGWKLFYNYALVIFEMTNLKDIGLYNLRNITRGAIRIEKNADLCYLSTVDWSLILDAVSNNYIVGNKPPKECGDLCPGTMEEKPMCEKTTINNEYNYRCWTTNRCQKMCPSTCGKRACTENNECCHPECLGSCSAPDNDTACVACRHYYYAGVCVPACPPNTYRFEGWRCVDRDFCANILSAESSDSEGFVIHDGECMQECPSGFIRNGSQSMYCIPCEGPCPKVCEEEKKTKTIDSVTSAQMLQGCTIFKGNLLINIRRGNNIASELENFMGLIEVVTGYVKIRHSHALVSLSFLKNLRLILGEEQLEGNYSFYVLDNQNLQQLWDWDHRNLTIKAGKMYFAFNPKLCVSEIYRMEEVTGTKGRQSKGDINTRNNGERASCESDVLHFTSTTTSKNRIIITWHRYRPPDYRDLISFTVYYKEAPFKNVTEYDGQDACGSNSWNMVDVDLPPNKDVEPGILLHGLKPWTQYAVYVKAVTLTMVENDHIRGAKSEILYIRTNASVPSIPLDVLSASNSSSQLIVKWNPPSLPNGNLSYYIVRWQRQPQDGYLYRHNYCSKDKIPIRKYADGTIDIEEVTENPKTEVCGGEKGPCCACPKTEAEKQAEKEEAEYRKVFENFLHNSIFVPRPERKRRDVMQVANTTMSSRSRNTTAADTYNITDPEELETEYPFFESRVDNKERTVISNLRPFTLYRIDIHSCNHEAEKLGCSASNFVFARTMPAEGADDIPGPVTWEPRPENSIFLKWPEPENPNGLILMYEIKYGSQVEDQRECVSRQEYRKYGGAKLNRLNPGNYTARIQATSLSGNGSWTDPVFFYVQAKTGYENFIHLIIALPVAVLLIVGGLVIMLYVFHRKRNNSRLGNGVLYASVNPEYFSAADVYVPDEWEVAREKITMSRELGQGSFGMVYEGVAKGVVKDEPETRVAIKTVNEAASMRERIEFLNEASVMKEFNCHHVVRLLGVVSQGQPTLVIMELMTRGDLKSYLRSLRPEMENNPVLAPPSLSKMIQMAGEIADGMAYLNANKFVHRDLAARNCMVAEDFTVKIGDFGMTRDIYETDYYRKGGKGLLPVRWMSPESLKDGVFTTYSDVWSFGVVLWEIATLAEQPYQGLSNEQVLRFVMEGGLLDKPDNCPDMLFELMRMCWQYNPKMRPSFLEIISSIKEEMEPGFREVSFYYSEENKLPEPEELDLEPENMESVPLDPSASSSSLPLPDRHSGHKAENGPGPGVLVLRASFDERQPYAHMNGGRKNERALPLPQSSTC

As to `CC(C)Nc1nccc(CN2C(=O)N(c3ccc(SC(F)(F)F)cc3)C(=O)C2(C)C)c1Br` [Compound 390, 1-((3-bromo-2-(isopropylamino)pyridin-4-yl)methyl)-5,5-dimethyl-3-(4-((trifluoromethyl)thio)phenyl)imidazolidine-2,4-dione], the IC50 in assay [1] was 2 to 10 µM; in assay [2], at most 0.5 µM. The corresponding values for `C[C@@H](CC#N)Nc1cc(CN2C(=O)N(c3ccc(C(C)(C)C)cc3)C(=O)C2(C)C)ccn1` [Compound 278, (S)-3-((4-((3-(4-(tert-butyl)phenyl)-5,5-dimethyl-2,4-dioxoimidazolidin-1-yl)methyl)pyridin-2-yl)amino)butanenitrile] are at most 0.5 µM and 0.5 to 2 µM. The corresponding values for `CC1(C)C(=O)N(c2ccc(C3(C(F)(F)F)CC3)cc2)C(=O)N1Cc1ccnc(NC2CCOCC2)c1` [Compound 106, 5,5-dimethyl-1-((2-((tetrahydro-2H-pyran-4-yl)amino)pyridin-4-yl)methyl)-3-(4-(1-(trifluoromethyl)cyclopropyl)phenyl) imidazolidine-2,4-dione] are at most 0.5 µM and at most 0.5 µM.

As to `CC(C)Nc1cc(CN2C(=O)N(c3ccc4c(c3)OCC4(C)C)C(=O)C2(C)C)ccn1` [Compound 189, 3-(3,3-dimethyl-2,3-dihydrobenzofuran-6-yl)-1-((2-(isopropylamino)pyridin-4-yl)methyl)-5,5-dimethylimidazolidine-2,4-dione], the IC50 in assay [1] and in assay [2] was at most 0.5 µM in each case. On to `CC1(C)C(=O)N(c2ccc(S(=O)(=O)C(F)(F)F)cc2)C(=O)N1Cc1ccnc(NC2CCOCC2)c1` [Compound 316, 5,5-dimethyl-1-((2-((tetrahydro-2H-pyran-4-yl)amino)pyridin-4-yl)methyl)-3-(4-((trifluoromethyl)sulfonyl)phenyl) imidazolidine-2,4-dione], for which the IC50 in assay [1] and in assay [2] was at most 0.5 µM each time. Consider `CC(C)Nc1cc(CN2C(=O)N(c3ccc(C(C)(C)C)nc3)C(=O)C2(C)C)ccn1` [Compound 267, 3-(6-(tert-butyl)pyridin-3-yl)-1-((2-(isopropylamino)pyridin-4-yl)methyl)-5,5-dimethylimidazolidine-2,4-dione], for which the IC50 in assay [1] and in assay [2] was at most 0.5 µM in each case.

On to `CC(C)Nc1cc(CN2C(=O)N(c3ccc(C4(C#N)CCCCC4)cc3)C(=O)C2(C)C)ccn1` [Compound 126, 1-(4-(3-((2-(isopropylamino)pyridin-4-yl)methyl)-4,4-dimethyl-2,5-dioxoimidazolidin-1-yl)phenyl)cyclohexane-1-carbonitrile], for which the IC50 in assay [1] and in assay [2] was 0.5 to 2 µM in each case.

`CN1C(=O)C(C)(C)c2ccc(N3C(=O)N(Cc4ccnc(N)c4)C(C)(C)C3=O)cc21` [Compound 110, 1-((2-aminopyridin-4-yl)methyl)-5,5-dimethyl-3-(1,3,3-trimethyl-2-oxoindolin-6-yl)imidazolidine-2,4-dione]: the IC50 in assay [1] fell in the range of 0.5 to 2 µM; in assay [2] it was 2 to 10 µM.

Consider `CC1(C)C(=O)N(c2ccc(C3(C(F)(F)F)CC3)cc2)C(=O)N1Cc1ccnc(NC2CCS(=O)(=O)CC2)c1` [Compound 133, 1-((2-((1,1-dioxidotetrahydro-2H-thiopyran-4-yl)amino)pyridin-4-yl)methyl)-5,5-dimethyl-3-(4-(1-(trifluoromethyl)cyclopropyl)phenyl) imidazolidine-2,4-dione], for which the IC50 in assay [1] and in assay [2] was 0.5 to 2 µM in each case. Turning to `CC1(C)C(=O)N(c2ccc(SC(F)(F)F)cc2)C(=O)N1Cc1ccnc(NC2CCOCC2)c1` [Compound 310, 5,5-dimethyl-1-((2-((tetrahydro-2H-pyran-4-yl)amino)pyridin-4-yl)methyl)-3-(4-((trifluoromethyl)thio)phenyl)imidazolidine-2,4-dione], the concentration for half-maximal inhibition (IC50) in assay [1] and in assay [2] was at most 0.5 µM each time. For `CC1(C)C(=O)N(c2ccc(C3(C(F)(F)F)CC3)cc2)C(=O)N1Cc1ccnc2c1C(F)(F)C(=O)N2` [Compound 24, 1-((3,3-difluoro-2-oxo-2,3-dihydro-1H-pyrrolo[2,3-b]pyridin-4-yl)methyl)-5,5-dimethyl-3-(4-(1-(trifluoromethyl)cyclopropyl)phenyl) imidazolidine-2,4-dione], the IC50 in assay [1] and in assay [2] was at most 0.5 µM each time. Turning to `CC1(C)C(=O)N(c2ccc(SC(F)(F)F)cc2)C(=O)N1Cc1ccnc(NC(=O)Nc2ccncc2)c1` [Compound 398, 1-(4-((5,5-dimethyl-2,4-dioxo-3-(4-((trifluoromethyl)thio)phenyl)imidazolidin-1-yl)methyl)pyridin-2-yl)-3-(pyridin-4-yl)urea], in assay [1], the IC50 was at most 0.5 µM.

Regarding `COc1cccc(NC(=O)Nc2cc(CN3C(=O)N(c4ccc(SC(F)(F)F)cc4)C(=O)C3(C)C)ccn2)c1` [Compound 364, 1-(4-((5,5-dimethyl-2,4-dioxo-3-(4-((trifluoromethyl)thio)phenyl)imidazolidin-1-yl)methyl)pyridin-2-yl)-3-(3-methoxyphenyl)urea], the concentration for half-maximal inhibition (IC50) in assay [1] is at most 0.5 µM. In the case of `CC1(C)C(=O)N(c2ccc(SC(F)(F)F)cc2)C(=O)N1Cc1ccnc(NC(=O)NC2CCN(CC(F)(F)F)CC2)c1` [Compound 307, 1-(4-((5,5-dimethyl-2,4-dioxo-3-(4-((trifluoromethyl)thio)phenyl)imidazolidin-1-yl)methyl)pyridin-2-yl)-3-(1-(2,2,2-trifluoroethyl)piperidin-4-yl)urea], the IC50 in assay [1] is at most 0.5 µM. On the same count and under the same terms, the same measure for `CN1CC(Nc2cc(CN3C(=O)N(c4ccc(C(C)(C)C)cc4)C(=O)C3(C)C)ccn2)C1` [Compound 345, 3-(4-(tert-butyl)phenyl)-5,5-dimethyl-1-((2-((1-methylazetidin-3-yl)amino)pyridin-4-yl)methyl)imidazolidine-2,4-dione]: 0.5 to 2 µM; for `CC1(C)C(=O)N(c2ccc(SC(F)(F)F)cc2)C(=O)N1Cc1ccnc(NC(=O)Nc2cccnc2)c1` [Compound 397, 1-(4-((5,5-dimethyl-2,4-dioxo-3-(4-((trifluoromethyl)thio)phenyl)imidazolidin-1-yl)methyl)pyridin-2-yl)-3-(pyridin-3-yl)urea]: at most 0.5 µM; for `CC1(C)C(=O)N(c2ccc(SC(F)(F)F)cc2)C(=O)N1Cc1cc(N)ncn1` [Compound 396, 1-((6-aminopyrimidin-4-yl)methyl)-5,5-dimethyl-3-(4-((trifluoromethyl)thio)phenyl) imidazolidine-2,4-dione]: at most 0.5 µM. Consider `CC1(C)C(=O)N(c2ccc(C3(C(F)(F)F)CC3)cc2)C(=O)N1Cc1ccnc2[nH]ccc12` [Compound 7, 1-((1H-pyrrolo[2,3-b]pyridin-4-yl)methyl)-5,5-dimethyl-3-(4-(1-(trifluoromethyl)cyclopropyl)phenyl)imidazolidine-2,4-dione], for which the IC50 in assay [1] was at most 0.5 µM. Regarding `CC(C)[C@@H]1C(=O)N(c2ccc(SC(F)(F)F)cc2)C(=O)N1Cc1ccnc(N)c1` [Compound 295, (R)-1-((2-aminopyridin-4-yl)methyl)-5-isopropyl-3-(4-((trifluoromethyl)thio)phenyl)imidazolidine-2,4-dione], in assay [1], the IC50 was in the range of 2 to 10 µM. With `CC1(C)C(=O)N(c2ccc(SC(F)(F)F)cc2)C(=O)N1Cc1ccnc(NC(=O)NC2CCOCC2)c1` [Compound 306, 1-(4-((5,5-dimethyl-2,4-dioxo-3-(4-((trifluoromethyl)thio)phenyl)imidazolidin-1-yl)methyl)pyridin-2-yl)-3-(tetrahydro-2H-pyran-4-yl)urea], the IC50 in assay [1] is at most 0.5 µM. The same measure, in the same setting: the same measure for `CC1(C)C(=O)N(c2ccc(SC(F)(F)F)cc2)C(=O)N1Cc1ccnc2[nH]cnc12` [Compound 2, 1-((3H-imidazo[4,5-b]pyridin-7-yl)methyl)-5,5-dimethyl-3-(4-((trifluoromethyl)thio)phenyl)imidazolidine-2,4-dione]: at most 0.5 µM; for `CC(C)Nc1cc(CN2C(=O)N(c3ccc([Si](C)(C)C)cc3)C(=O)C2(C)C)ccn1` [Compound 89, 1-((2-(isopropylamino)pyridin-4-yl)methyl)-5,5-dimethyl-3-(4-(trimethylsilyl)phenyl)imidazolidine-2,4-dione]: at most 0.5 µM; for `COC[C@@H](C)Nc1cc(CN2C(=O)N(c3ccc(C(C)(C)C)cc3)C(=O)C2(C)C)ccn1` [Compound 268, (R)-3-(4-(tert-butyl)phenyl)-1-((2-((1-methoxypropan-2-yl)amino)pyridin-4-yl)methyl)-5,5-dimethylimidazolidine-2,4-dione]: at most 0.5 µM. The same measure, in the same setting: under `Cc1cc2c(CN3C(=O)N(c4ccc(C5(C(F)(F)F)CC5)cc4)C(=O)C3(C)C)ccnc2[nH]1` [Compound 9, 5,5-dimethyl-1-((2-methyl-1H-pyrrolo[2,3-b]pyridin-4-yl)methyl)-3-(4-(1-(trifluoromethyl)cyclopropyl)phenyl) imidazolidine-2,4-dione] stands at most 0.5 µM; under `COCC(C)Nc1cc(CN2C(=O)N(c3ccc(C(C)(C)C)cc3)C(=O)C2(C)C)ccn1` (stereo not shown) [Compound 265, 3-(4-(tert-butyl)phenyl)-1-((2-((1-methoxypropan-2-yl)amino)pyridin-4-yl)methyl)-5,5-dimethylimidazolidine-2,4-dione], at most 0.5 µM; under `CC1(C)C(=O)N(c2ccc(SC(F)(F)F)cc2)C(=O)N1Cc1ccnc(NC(=O)NC2CCC(F)(F)C2)c1` (stereo not shown) [Compound 374, 1-(3,3-difluorocyclopenty)-3-(4-((5,5-dimethyl-2,4-dioxo-3-(4-((trifluoromethyl)thio)phenyl)imidazolidin-1-yl)methyl)pyridin-2-yl)urea], at most 0.5 µM.
